Patent US8940909B2, “Indicator platform” (Biosynth AG, priority 2009, dated 2015)

What was measured:
Experiment in all cases: IO staining of colonies of beta-D-galactosidase positive/negative bacteria (Table IVb)
Assay type in all cases: cell-based
Salmonella bongori 81 = conditions: Salmonella bongori strain 81, b-gal +; 24 h on Nutrient Agar, 150 mg/l indicator, 100 mg/l IPTG
[1] = test system: Staphylococcus saprophyticus 273; conditions: Staphylococcus saprophyticus strain 273, b-gal +; 24 h on Nutrient Agar, 150 mg/l indicator, 100 mg/l IPTG; on G: Growth of colonies: key: −: absent; +/−: weak; +: strong; ++: very strong
[2] = test system: Staphylococcus intermedius 31; conditions: Staphylococcus intermedius strain 31, b-gal +; 24 h on Nutrient Agar, 150 mg/l indicator, 100 mg/l IPTG
Aeromonas hydrophila 292 = conditions: Aeromonas hydrophila strain 292, b-gal +; 24 h on Nutrient Agar, 150 mg/l indicator, 100 mg/l IPTG
Staphylococcus aureus 2 = conditions: Staphylococcus aureus strain 2, b-gal −, 24 h on Nutrient Agar, 150 mg/l indicator, 100 mg/l IPTG; for C: Color of colonies: footnote 2: S. aureus natural color
[3] = test system: Klebsiella pneumoniae 164; conditions: Klebsiella pneumoniae strain 164, b-gal +; 24 h on Nutrient Agar, 150 mg/l indicator, 100 mg/l IPTG; on C: Color of colonies: key: −: absent; +/−: weak; +: strong; ++: very strong; on G: Growth of colonies: key: −: absent; +/−: weak; +: strong; ++: very strong
Shigella sonnei 133 = conditions: Shigella sonnei strain 133, b-gal +/−; 24 h on Nutrient Agar, 150 mg/l indicator, 100 mg/l IPTG
Serratia marcescens 40 = conditions: Serratia marcescens strain 40, b-gal +; 24 h on Nutrient Agar, 150 mg/l indicator, 100 mg/l IPTG
[4] = test system: Yersinia enterocolitica 175; conditions: Yersinia enterocolitica strain 175, b-gal +/−; 24 h on Nutrient Agar, 150 mg/l indicator, 100 mg/l IPTG; on G: Growth of colonies: key: −: absent; +/−: weak; +: strong; ++: very strong
[5] = test system: Enterobacter aerogenes 242; conditions: Enterobacter aerogenes strain 242, b-gal +; 24 h on Nutrient Agar, 150 mg/l indicator, 100 mg/l IPTG; on C: Color of colonies: key: −: absent; +/−: weak; +: strong; ++: very strong; on G: Growth of colonies: key: −: absent; +/−: weak; +: strong; ++: very strong
[6] = test system: Streptococcus agalactiae 195; conditions: Streptococcus agalactiae strain 195, b-gal −; 24 h on Nutrient Agar, 150 mg/l indicator, 100 mg/l IPTG; on C: Color of colonies: key: −: absent; +/−: weak; +: strong; ++: very strong; on F: Fluorescence of colonies: key: −: absent; +/−: weak; +: strong; ++: very strong
Bacillus subtilis 65 = conditions: Bacillus subtilis strain 65, b-gal −; 24 h on Nutrient Agar, 150 mg/l indicator, 100 mg/l IPTG
[7] = test system: Escherichia coli (O157:H7) 60; conditions: Escherichia coli (O157:H7) strain 60, b-gal +; 24 h on Nutrient Agar, 150 mg/l indicator, 100 mg/l IPTG
Citrobacter freundii 181 = conditions: Citrobacter freundii strain 181, b-gal +; 24 h on Nutrient Agar, 150 mg/l indicator, 100 mg/l IPTG
Enterobacter cloacae 245 = conditions: Enterobacter cloacae strain 245, b-gal +; 24 h on Nutrient Agar, 150 mg/l indicator, 100 mg/l IPTG
[8] = test system: Listeria monocytogenes (4b) 290; conditions: Listeria monocytogenes (4b) strain 290, b-gal −; 24 h on Nutrient Agar, 150 mg/l indicator, 100 mg/l IPTG; on C: Color of colonies: key: −: absent; +/−: weak; +: strong; ++: very strong; on F: Fluorescence of colonies: key: −: absent; +/−: weak; +: strong; ++: very strong
Salmonella illa 73 = conditions: Salmonella illa strain 73, b-gal +; 24 h on Nutrient Agar, 150 mg/l indicator, 100 mg/l IPTG
[9] = test system: Shigella dysenteriae Serovar 1 131; conditions: Shigella dysenteriae Serovar 1 strain 131, b-gal +/−; 24 h on Nutrient Agar, 150 mg/l indicator, 100 mg/l IPTG
Escherichia coli 61 = conditions: Escherichia coli strain 61, b-gal +; 24 h on Nutrient Agar, 150 mg/l indicator, 100 mg/l IPTG
[10] = test system: Salmonella enteritidis 43; conditions: Salmonella enteritidis strain 43, b-gal −; 24 h on Nutrient Agar, 150 mg/l indicator, 100 mg/l IPTG; further: key: −: absent; +/−: weak; +: strong; ++: very strong
Shigella boydii 135 = conditions: Shigella boydii strain 135, b-gal −; 24 h on Nutrient Agar, 150 mg/l indicator, 100 mg/l IPTG

Compound: 5-Bromo-4-chloro-1H-indol-3-yl-beta-D-galactopyranoside [Indicator I4a, reference compound]
- C: Color of colonies (Salmonella bongori 81): +/−
- F: Fluorescence of colonies (Salmonella bongori 81): −
- G: Growth of colonies (Salmonella bongori 81): +
- C: Color of colonies [1]: +
- F: Fluorescence of colonies [1]: −
- G: Growth of colonies [1]: +
- C: Color of colonies [2]: +
- F: Fluorescence of colonies [2]: −
- G: Growth of colonies [2]: +
- C: Color of colonies (Aeromonas hydrophila 292): +
- F: Fluorescence of colonies (Aeromonas hydrophila 292): −
- G: Growth of colonies (Aeromonas hydrophila 292): +
- F: Fluorescence of colonies (Staphylococcus aureus 2): −
- G: Growth of colonies (Staphylococcus aureus 2): +
- C: Color of colonies (Staphylococcus aureus 2): y^2
- C: Color of colonies [3]: ++
- F: Fluorescence of colonies [3]: −
- G: Growth of colonies [3]: +
- C: Color of colonies (Shigella sonnei 133): +
- F: Fluorescence of colonies (Shigella sonnei 133): −
- G: Growth of colonies (Shigella sonnei 133): +
- C: Color of colonies (Serratia marcescens 40): +
- F: Fluorescence of colonies (Serratia marcescens 40): −
- G: Growth of colonies (Serratia marcescens 40): +
- C: Color of colonies [4]: −
- F: Fluorescence of colonies [4]: −
- G: Growth of colonies [4]: +
- C: Color of colonies [5]: ++
- F: Fluorescence of colonies [5]: −
- G: Growth of colonies [5]: +
- C: Color of colonies [6]: −
- F: Fluorescence of colonies [6]: −
- G: Growth of colonies [6]: +/−
- C: Color of colonies (Bacillus subtilis 65): −
- F: Fluorescence of colonies (Bacillus subtilis 65): −
- G: Growth of colonies (Bacillus subtilis 65): +
- C: Color of colonies [7]: ++
- F: Fluorescence of colonies [7]: −
- G: Growth of colonies [7]: +
- C: Color of colonies (Citrobacter freundii 181): +
- F: Fluorescence of colonies (Citrobacter freundii 181): −
- G: Growth of colonies (Citrobacter freundii 181): +
- C: Color of colonies (Enterobacter cloacae 245): ++
- F: Fluorescence of colonies (Enterobacter cloacae 245): −
- G: Growth of colonies (Enterobacter cloacae 245): +
- C: Color of colonies [8]: −
- F: Fluorescence of colonies [8]: −
- G: Growth of colonies [8]: +/−
- C: Color of colonies (Salmonella illa 73): −
- F: Fluorescence of colonies (Salmonella illa 73): −
- G: Growth of colonies (Salmonella illa 73): +
- C: Color of colonies [9]: −
- F: Fluorescence of colonies [9]: −
- G: Growth of colonies [9]: +
- C: Color of colonies (Escherichia coli 61): ++
- F: Fluorescence of colonies (Escherichia coli 61): −
- G: Growth of colonies (Escherichia coli 61): +
- C: Color of colonies [10]: −
- F: Fluorescence of colonies [10]: −
- G: Growth of colonies [10]: +
- C: Color of colonies (Shigella boydii 135): −
- F: Fluorescence of colonies (Shigella boydii 135): −
- G: Growth of colonies (Shigella boydii 135): +

Compound: O=C(c1ccccc1)c1ccccc1-n1cc(O[C@@H]2O[C@H](CO)[C@H](O)[C@H](O)[C@H]2O)c2ccc(Cl)cc21 [Indicator I21a, 1-(2-Benzoylphenyl)-6-chloro-1H-indol-3-yl-beta-D-galactopyranoside]
- C: Color of colonies (Salmonella bongori 81): +/−
- F: Fluorescence of colonies (Salmonella bongori 81): +/−
- G: Growth of colonies (Salmonella bongori 81): +
- C: Color of colonies [1]: +
- F: Fluorescence of colonies [1]: +
- G: Growth of colonies [1]: +
- C: Color of colonies [2]: +/−
- F: Fluorescence of colonies [2]: +/−
- G: Growth of colonies [2]: +/−
- C: Color of colonies (Aeromonas hydrophila 292): +
- F: Fluorescence of colonies (Aeromonas hydrophila 292): +
- G: Growth of colonies (Aeromonas hydrophila 292): +
- F: Fluorescence of colonies (Staphylococcus aureus 2): −
- G: Growth of colonies (Staphylococcus aureus 2): +/−
- C: Color of colonies (Staphylococcus aureus 2): −
- C: Color of colonies [3]: +
- F: Fluorescence of colonies [3]: +
- G: Growth of colonies [3]: +
- C: Color of colonies (Shigella sonnei 133): +
- F: Fluorescence of colonies (Shigella sonnei 133): +
- G: Growth of colonies (Shigella sonnei 133): +
- C: Color of colonies (Serratia marcescens 40): ++
- F: Fluorescence of colonies (Serratia marcescens 40): +
- G: Growth of colonies (Serratia marcescens 40): +
- C: Color of colonies [4]: −
- F: Fluorescence of colonies [4]: +/−
- G: Growth of colonies [4]: +
- C: Color of colonies [5]: +
- F: Fluorescence of colonies [5]: +
- G: Growth of colonies [5]: +
- C: Color of colonies [6]: −
- F: Fluorescence of colonies [6]: −
- G: Growth of colonies [6]: +/−
- C: Color of colonies (Bacillus subtilis 65): −
- F: Fluorescence of colonies (Bacillus subtilis 65): −
- G: Growth of colonies (Bacillus subtilis 65): +/−
- C: Color of colonies [7]: +
- F: Fluorescence of colonies [7]: +
- G: Growth of colonies [7]: +
- C: Color of colonies (Citrobacter freundii 181): +
- F: Fluorescence of colonies (Citrobacter freundii 181): +
- G: Growth of colonies (Citrobacter freundii 181): +
- C: Color of colonies (Enterobacter cloacae 245): +
- F: Fluorescence of colonies (Enterobacter cloacae 245): +
- G: Growth of colonies (Enterobacter cloacae 245): +
- C: Color of colonies [8]: −
- F: Fluorescence of colonies [8]: −
- G: Growth of colonies [8]: +/−
- C: Color of colonies (Salmonella illa 73): −
- F: Fluorescence of colonies (Salmonella illa 73): −
- G: Growth of colonies (Salmonella illa 73): +
- C: Color of colonies [9]: −
- F: Fluorescence of colonies [9]: −
- G: Growth of colonies [9]: +
- C: Color of colonies (Escherichia coli 61): +
- F: Fluorescence of colonies (Escherichia coli 61): +
- G: Growth of colonies (Escherichia coli 61): +
- C: Color of colonies [10]: −
- F: Fluorescence of colonies [10]: −
- G: Growth of colonies [10]: +
- C: Color of colonies (Shigella boydii 135): −
- F: Fluorescence of colonies (Shigella boydii 135): −
- G: Growth of colonies (Shigella boydii 135): +
